# Data taken from paper PMC11084632, “Pharmacological Evaluation of Cannabinoid Receptor Modulators Using GRABeCB2.0 Sensor” (International Journal of Molecular Sciences, 2024).
# Read-outs that look alike come from different tables or passages of the source.
# Legend:
# [1] = biological target: T1, GRABeCB2.0 sensor (Homo sapiens, UniProt P21554, S383T, form not given); type: cell-based
# Text: (§1) Stable eCB2.0 sensor cell line: A stable sensor cell line was established in HEKtsA201 cells (Sigma-Aldrich, St. Louis, MO, USA) using the PiggyBac Transposon-based system (SBI, Palo Alto, CA, USA). Briefly, the open reading frame of the eCB2.0 sensor from eCB2.0 to C1^20 was cloned into the PB514B shuttle vector using In Fusion cloning (Takara, San Jose, CA, USA). The modified shuttle sequence was obtained with Sanger sequencing (Psomagen, Rockville, MD, USA) and verified (MacVector, Apex, NC, USA). HEKtsA201 cells were maintained in DMEM (Thermo Fisher, Waltham, MA, USA: Gibco #10569-010) supplemented with 10% fetal bovine serum (Gibco #A31605-01) and 1% penicillin/streptomycin (Gibco #15140-122) at 37 °C and 8% CO2. Cells were plated on 12-well tissue culture plates at approximately 50% confluency. This low cell density was used to avoid overgrowth of the cells during the delay between transfection and selection for stable integration. After 3 h, the eCB2.0 shuttle was co-transfected at a plasmid mass ratio of 10:1 with the SBI Transposase vector (PB210PA) using deacylated PEI [71]. All transfected wells were checked the next day for expression of the sensor by presence of basal cpeGFP fluorescence. […] Wells were selected for integration beginning at 4 days post transfection with […] Puromycin (Gibco #A11138-03). Selection was continued throughout all passages of the stable line. Cells were transferred to T25 (25 cm^2) tissue culture flasks after 10 to 14 days of selection.
# Assay Procedure: The DMEM solution was removed from the T25 flat-sided cell culture flask by decantation. […] A total of 7 mL of fresh DMEM was added, and cells were gently pipetted to remove any remaining cells from the flask wall. The total volume (10 mL) was transferred to a 15 mL Falcon tube and centrifuged at 800× g for 4 min at 23 °C. Upon completion of centrifugation, the supernatant was removed and discarded, leaving behind a small pellet of cells that were resuspended in 4 mL of fresh DMEM. The cell suspension was mixed in a 1:1 ratio with 0.4% TrypanBlue ([…] each) and […] solution was added to each side of a Countess Cell Counting Chamber and inserted into the Countess II Automated Cell Counter (Thermo Fisher, Waltham, MA, USA). The concentration of cells as adjusted to 0.7–1.0 million cells/mL with DMEM complete media and […] was added to the desired wells of a clear bottom black plastic tissue culture treated 96-well plate. The plate was incubated at 37 °C and 8% CO2 for a 24–48 h period. After incubation, the […] DMEM buffer was removed and replaced with […] of DPBS buffer containing calcium and magnesium (Gibco #14040-133). After the addition of the DPBS buffer, a baseline reading of the cells was taken using the PHERAstar FSX microplate reader (BMG/Labtech, Cary, NC, USA) to establish the F0 or initial fluorescence (see Figure 1A,B).
# (§2) When running the assay for an agonist, […] of the compound and […] of additional DPBS buffer was added to the wells. A concentration curve was made for the modulator with the final concentrations in the wells holding the cells ranging from 1 pM to 10 mM with 1% DMSO BSA in a total volume of 150 mL. […] In either assay, the cannabinoid ligands were added, followed by incubation of the compound on the cells at 37 °C for 5 min before taking a fluorescence reading using the PHERAstar FSX microplate reader equipped with a GFP filter cube module (Ex. 485 nm/Em. 520 nm). The recorded values were the F or final fluorescence.
# For reported allosteric modulators, the binding assay was modified to test the ligand for basal activity, followed by the addition of the agonist, similar to the antagonist assay.
# [2] = biological target: CB1R; details: cited from earlier work
# [3] = biological target: T1, GRABeCB2.0 sensor; type: cell-based; details: for Effect on GRABeCB2.0 basal fluorescence: no agonist; for EC50: HEK293 cells, without BSA, ΔF/F0 4-5 min, read-out: EC50 at inducing GRABeCB2.0 fluorescent signal
# Text: as §1
# Assay Procedure: The DMEM solution was removed from the T25 flat-sided cell culture flask by decantation. […] A total of 7 mL of fresh DMEM was added, and cells were gently pipetted to remove any remaining cells from the flask wall. The total volume (10 mL) was transferred to a 15 mL Falcon tube and centrifuged at 800× g for 4 min at 23 °C. […] After the addition of the DPBS buffer, a baseline reading of the cells was taken using the PHERAstar FSX microplate reader (BMG/Labtech, Cary, NC, USA) to establish the F0 or initial fluorescence (see Figure 1A,B).
# as §2, with “wells.” for “wells. A concentration curve was made for the modulator with the final concentrations in the wells holding the cells ranging from 1 pM to 10 mM with 1% DMSO BSA in a total volume of 150 mL.”
# Statistical Methods: All GRABeCB2.0 fluorescent signals (in cases noted) are expressed as normalized ΔF/F0 as calculated for the fluorescence assay in the PHERAstar FSX Plate reader.
# [4] = biological target: CB1 receptor; details: cited from earlier work
# [5] = biological target: T1, GRABeCB2.0 sensor; type: cell-based; details: for Effect on CP55940 fluorescence signal/maximal fluorescence: modulator 1 μM, varying CP55940
# Experimental: For reported allosteric modulators, the binding assay was modified to test the ligand for basal activity, followed by the addition of the agonist, similar to the antagonist assay. […] The compound of interest was varied across concentrations ranging (as the case may be) from 1 nM, 3 nM, 10 nM, 30 nM, 100 nM, 300 nM, 1 μM, and 10 μM and performed in triplicate. The concentration of the compound depended on the modulator itself. The concentrations calculated were the final concentration inside the well of the 96-well plate, along with the 1% DMSO and 0.5 mg/mL BSA (See Supplementary Materials, Figure S1).
# Statistical Methods: All GRABeCB2.0 fluorescent signals (in cases noted) are expressed as normalized ΔF/F0 as calculated for the fluorescence assay in the PHERAstar FSX Plate reader. EC50/IC50 values were calculated using GraphPad Prism 9 by fitting data to a nonlinear regression model with normalized variable slope (four parameters, normalized where indicated) or using three-parameter response. Data represent mean ± SEM from a minimum of at least three independent experiments performed in triplicates.
# [6] = biological target: T1, GRABeCB2.0 sensor; details: increasing concentrations; cited from earlier work
# [7] = read-out: GRABeCB2.0 IC50 0.5 mg/mL BSA
# [8] = reported, read-out: binding Ki (reported)
# T1 sequence (P21554 whole entry S383T, looked up, form open, the tested form may be a part): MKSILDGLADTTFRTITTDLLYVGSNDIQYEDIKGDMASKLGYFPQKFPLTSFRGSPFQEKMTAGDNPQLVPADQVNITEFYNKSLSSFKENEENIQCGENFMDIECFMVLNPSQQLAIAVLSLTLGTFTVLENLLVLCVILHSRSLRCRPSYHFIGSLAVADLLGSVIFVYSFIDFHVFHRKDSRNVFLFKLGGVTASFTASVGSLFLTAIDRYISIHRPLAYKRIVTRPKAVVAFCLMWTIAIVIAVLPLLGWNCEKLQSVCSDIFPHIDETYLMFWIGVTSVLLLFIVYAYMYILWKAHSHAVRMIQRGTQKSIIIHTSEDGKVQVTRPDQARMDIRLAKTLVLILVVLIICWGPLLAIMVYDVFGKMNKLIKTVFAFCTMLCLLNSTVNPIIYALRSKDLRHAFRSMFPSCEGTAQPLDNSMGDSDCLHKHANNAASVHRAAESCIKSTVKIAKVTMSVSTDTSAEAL
molecule,measurement,setting,value
CC(C)[C@H](N=C(NS(=O)(=O)c1ccc(Cl)cc1)N1C[C@H](c2ccccc2)C(c2ccc(Cl)cc2)=N1)C(N)=O [JD5037],IC50,[1]; read-out: GRABeCB2.0 IC50,148 ± 12 nM
same,IC50,[1]; [7],29 ± 3.5 nM
same,Ki,[2]; read-out: binding Ki on CB1R,0.5 nM
CC(=O)[C@H]1CC[C@H]2[C@@H]3CC=C4C[C@@H](O)CC[C@]4(C)[C@H]3CC[C@]12C [Pregnenolone],Effect on GRABeCB2.0 basal fluorescence,[3],did not significantly alter basal fluorescence
same,Effect on CP55940-activated GRABeCB2.0 fluorescence,[1],void of any concentration-dependent effects
same,Effect on 2-AG-activated GRABeCB2.0 fluorescence,[1]; 20 μM 2-AG,this behavior could be replicated
CC(=O)NC(=N)NC(=NS(=O)(=O)c1ccc(Cl)cc1)N1C[C@@H](c2ccccc2)C(c2ccc(Cl)cc2)=N1 [R-MRI-1776],CB1 binding of R-enantiomers on the sensor,[1],weak CB1 binding
CCNC1(C(N)=O)CCN(c2ncnc3c2nc(-c2ccccc2Cl)n3-c2ccc(Cl)cc2)CC1 [Otenabant],IC50,[4]; read-out: reported IC50,[…]
same,Ki,[2]; read-out: binding Ki for CB1R,0.7 nM
CC(=O)OCCn1c(=NC(=O)C2C(C)(C)C2(C)C)sc2cc(C)ccc21 [MRI-2687],EC50,[3],1300 nM
C/C(N)=N\C(=N/S(=O)(=O)c1ccc(C(F)(F)F)cc1)N1C[C@H](c2ccccc2)C(c2ccc(Cl)cc2)=N1 [MRI-1867],IC50,[1]; read-out: GRABeCB2.0 IC50,105 ± 5.4 nM
same,IC50,[1]; [7],90 ± 5 nM
same,IC50,"[4]; reported, read-out: functional potency IC50 (reported)",40 nM
same,Ki,[2]; [8],2.6 nM
O=[N+]([O-])C[C@@H](c1ccccc1)c1c(-c2ccccc2)[nH]c2ccccc12 [GAT229],Effect on CP55940-activated GRABeCB2.0 fluorescence,[1],more potent enhancer of sensor fluorescence than GAT228
same,Effect on CP55940 fluorescence signal/maximal fluorescence,[5],increased the maximal fluorescence
same,apparent α (Schild-like analysis),[5]; range of CP55940 concentrations,> 1
CC(=O)OCCn1c(C)c(C)s/c1=N\C(=O)C1C(C)(C)C1(C)C [MRI-2594],EC50,[3],527 ± 27 nM
"C=C(C)[C@@H]1CCC(C)=C[C@H]1c1c(O)cc(CCCCC)cc1O [CBD, cannabidiol]",Effect on basal GRABeCB2.0 fluorescent signal (reported),[6],did not affect basal GRABeCB2.0 fluorescent signal
CCc1c(C(=O)NCCc2ccc(N3CCCCC3)cc2)[nH]c2ccc(Cl)cc12 [ORG27569],Effect on GRABeCB2.0 basal fluorescence,[3],did not significantly alter basal fluorescence
same,Effect on CP55940-activated GRABeCB2.0 fluorescence,[1],void of any concentration-dependent effects
same,IC50,[1]; read-out: IC50 as weak antagonists (normalized curve),787 nM
O=[N+]([O-])C[C@H](c1ccccc1)c1c(-c2ccccc2)[nH]c2ccccc12 [GAT228],Effect on CP55940 fluorescence signal/maximal fluorescence,[5],did not shift the fluorescence signal
"CCCCC/C=C\C/C=C\C/C=C\C/C=C\CCCC(=O)NCCCl [ACEA, (5Z,8Z,11Z,14Z)-N-(2-chloroethyl)icosa-5,8,11,14-tetraenamide]",EC50,[4]; read-out: reported EC50 for the CB1 receptor,51 nM
same,Ki,"[2]; Supplementary Table 1, # literature reported values, read-out: CB1R wild-type binding Ki",1.4 nM
same,Ki,[2]; read-out: Ki for CB1 receptor,1.5 to 5 nM
CC(=O)NC(=N)NC(=NS(=O)(=O)c1ccc(C(F)(F)F)cc1)N1C[C@@H](c2ccccc2)C(c2ccc(Cl)cc2)=N1 [R-MRI-1891],CB1 binding of R-enantiomers on the sensor,[1],weak CB1 binding
CC(=O)NC(N)=NC(=NS(=O)(=O)c1ccc(C(F)(F)F)cc1)N1C[C@H](c2ccccc2)C(c2ccc(Cl)cc2)=N1 [MRI-1891],IC50,"[4]; printed after 'bias toward inhibition of the β-arrestin pathway, over G-protein signaling pathway', read-out: IC50 (reported)",6 nM
same,Ki,[2]; [8],0.5 nM
Pregnenolone sulfate,Effect on CP55940-activated GRABeCB2.0 fluorescence,[1],extinguished CP fluorescence but showed no concentration-dependent effects
C[C@H](NC(=O)C(C)(C)Oc1ccc(C(F)(F)F)cn1)[C@@H](Cc1ccc(Cl)cc1)c1cccc(C#N)c1 [Taranabant],Ki,[2]; read-out: reported Ki,0.13 nM
